Test results as given in ChEMBL document CHEMBL1150953, “Novel betaines from the marine sponge Agelas dispar” (1998).
Converted amounts (≈) assume the structure as drawn.

Assays:
[1] = system: Staphylococcus aureus; experiment: Antibacterial activity against Staphylococcus aureus ATCC 6538 after 16 hrs; type: functional; conditions: ATCC 6538, 16 h
[2] = system: Bacillus subtilis; experiment: Antibacterial activity against Bacillus subtilis ATCC 6633 after 16 hrs; type: functional; conditions: ATCC 6633, 16 h

SMILES | MIC [1] [µg/mL] | MIC [2] [µg/mL]
Cn1c(CC(=O)[O-])c[n+](C)c1N [AMINOZOOANEMONIN] | 8.5 (≈ 50.2 µM) | 2.5 (≈ 14.8 µM)
O=C([O-])c1ccc[n+](CCO)c1 [PYRIDINEBETAINE A] | 5 (≈ 29.9 µM) | 3.5 (≈ 20.9 µM)
